Results taken from patent publication EP0106486A2, “Improvements in or relating to novel octahydrobenz(f)isoquinolines” (ELI LILLY AND COMPANY, priority 1982, dated 1984).
Counter-ions that a name gives are not always drawn. Like-named read-outs stand apart in the source and are kept apart here.

System: Cox standard strain albino male mice
Assay: mouse writhing assay (acetic acid-induced writhing)
Assay type: in vivo
Conditions: dose required to inhibit induced writhing by fifty percent, 5 mice per group
Excerpt: The analgesic activity of a number of compounds provided by this invention has been determined in the standard rat-tail jerk assay and the mouse writhing assay. Writhing, characterized by contraction of the abdominal musculature, extension of the hind- legs, and rotation of the trunk, was induced in Cox standard strain albino male mice. The mice, weighing 18-24 grams, were fasted overnight and given the test compound by gavage in an acacia suspension (5%) sixty minutes before writhing was induced by the intraperitoneal administration of acetic acid (0.60 percent). Each treatment group consisted of 5 mice. The total number of writhes for the treatment group was determined during a 10-minute observation starting 5 minutes after acetic acid administration. […] The results in the mouse writhing assay are presented as the effective dose in mg./kg. of the tested compound required to inhibit induced writhing in the test animals by fifty percent (ED50). Results are presented in Column II for both subcutaneous (s.c.) and oral (p.o.) administration of the test compound as compared to the reference compound meperidine.

[1] = 1 h, oral (p.o.) administration, acacia suspension (5%), sixty minutes before i.p. acetic acid (0.60 percent), read-out: Mouse Writhing ED50 p.o.
[2] = sc, subcutaneous (s.c.) administration, writhing induced by i.p. acetic acid (0.60 percent), read-out: Mouse Writhing ED50 s.c.

SMILES	ED50 [1]	ED50 [2]
CCC[C@]12CCN(C)C[C@H]1CCc1ccc(OC)cc12.Cl (relative stereo) [Example 2, cis-1,2,3,4,4a,5,6,10b-octahydro-3-methyl-9-methoxy-10b-propylbenz[f]isoquinoline hydrochloride]	11 mg/kg	10 mg/kg
CN1CC[C@]2(C)c3cc(O)ccc3CC[C@@H]2C1 (relative stereo) [Example 3, cis-1,2,3,4,4a,5,6,10b-octahydro-3,10b-di-methylbenz[f]isoquinolin-9-ol]	7.2 mg/kg	2.3 mg/kg
CCC[C@]12CCNC[C@H]1CCc1ccc(OC)cc12.Cl (relative stereo) [Example 6, cis-1,2,3,4,4a,5,6,10b-octahydro-9-methoxy-10b-propylbenz[f]isoquinoline hydrochloride]	> 80 mg/kg	> 80 mg/kg
C=CCN1CC[C@]2(C)c3cc(O)ccc3CC[C@@H]2C1 (relative stereo) [Example 8, cis-1,2,3,4,4a,5,6,10b-octahydro-3-(2-propenyl)-10b-methylbenz[f]isoquinolin-9-ol]	> 80 mg/kg	15 mg/kg
C[C@]12CCN(CC3CC3)C[C@H]1CCc1ccc(O)cc12 (relative stereo) [Example 9, cis-1,2,3,4,4a,5,6,10b-octahydro-3-(cyclopropylmethyl)-10b-methylbenz[f]isoquinolin-9-ol]	> 80 mg/kg	32 mg/kg
C[C@@]12CCN(CCc3ccccc3)C[C@@H]1CCc1ccc(O)cc12 (relative stereo) [Example 10, cis-1,2,3,4,4a,5,6,10b-octahydro-3-(2-phenylethyl)-10b-methylbenz[f]isoquinolin-9-ol]	38.2 mg/kg	5.2 mg/kg
CCC[C@]12CCNC[C@H]1CCc1ccc(O)cc12 (relative stereo) [Example 11, cis-1,2,3,4,4a,5,6,10b-octahydro-10b-propylbenz[f]isoquinolin-9-ol]	> 80 mg/kg	62 mg/kg
C=CCN1CC[C@]2(CCC)c3cc(O)ccc3CC[C@@H]2C1 (relative stereo) [Example 12, cis-1,2,3,4,4a,5,6,10b-octahydro-3-(2-propenyl)-10b-propylbenz[f]isoquinolin-9-ol]	45 mg/kg	12 mg/kg
CCC[C@]12CCN(CC3CC3)C[C@H]1CCc1ccc(O)cc12 (relative stereo) [Example 13, cis-1,2,3,4,4a,5,6,10b-octahydro-3-cyclopropylmethyl-10b-propylbenz[f]isoquinolin-9-ol]	73 mg/kg	34 mg/kg
CCC[C@]12CCN(CCc3ccccc3)C[C@H]1CCc1ccc(O)cc12 (relative stereo) [Example 14, cis-1,2,3,4,4a,5,6,10b-octahydro-3-(2-phenylethyl)-10b-propylbenz[f]isoquinolin-9-ol]	> 80 mg/kg	78 mg/kg
COc1ccc2c(c1)[C@]1(C)CCN(C)C[C@@H]1CC2 [Example 1, cis-1,2,3,4,4a,5,6,lOb-octahydro-3,lOb-dimethyl-9-methoxybenz[f]isoquinoline hydrochloride]	15 mg/kg	10 mg/kg
CCC[C@@]12CCN(C)C[C@@H]1CCc1ccc(O)cc12 [Example 4, cis-1,2,3,4,4a,5,6,1Ob-octahydro-3-methyl-10b-propylbenz[f]isoquinolin-9-ol hydrochloride]	13 mg/kg	4.5 mg/kg
COc1ccc2c(c1)[C@]1(C)CCNC[C@@H]1CC2 [Example 5, cis-1,2,3,4,4a,5,6,10b-octahydro-9-methoxy-LOb-methylbenz[f]isoquinoline hydrochloride]	80 mg/kg	62 mg/kg
C[C@@]12CCNC[C@@H]1CCc1ccc(O)cc12 [Example 7, cis-l,2,3,4,4a,5,6,10b-octahydro-10b-methylbenz[f]isoquinolin-9-ol]	> 80 mg/kg	80 mg/kg
CCOC(=O)C1(c2ccccc2)CCN(C)CC1 [Meperidine, reference compound]	21 mg/kg	2.8 mg/kg
